Experimental data reported in US20120282266A1, “ANTI-NEOPLASTIC USES OF ARTEMIN ANTAGONISTS” (AUCKLAND UNISERVICES LIMITED, priority 2009, published 2012).

Experiments:
ARTN = experiment: Western blot for ARTN protein expression in BT549 and MDA-MB-231 cell pairs; type: cell-based, human; details: BT549 wild type cells, with paclitaxel vs without paclitaxel
Description: Western blot analysis was performed as described previously (Liu and Lobie, 2007) using the following antibodies: goat anti-artemin polyclonal antibody (R&D systems, Minneapolis, Minn.) and mouse anti-β-Actin monoclonal antibody (Sigma, St Louis, Mo.).
Western blot analysis was performed as described above in Example 1.
Reagents, Western blot analysis, and cell function and viability assays were all done as described above in Example 2.

BT549 PTX Res cells = experiment: Cell function assays (monolayer viability, soft agar colony formation, 3D matrigel growth), BT549-PTX Res; type: cell-based
Description: (§1) For soft agar colony formation assay, cells were cultured in 96-well plates first covered with a layer of agar (0.5%). Cells were grown in medium containing 10% FBS. 5×10^3 cells were seeded into 100 μl 0.35% agarose and onto the 0.5% agarose base layer. 100 μl serum-supplemented medium containing drug or antibody was added on the top and changed every 3 days. The plates were incubated at 37° C. in a humidified incubator. After 10 days, alarmarBlue® was added (1:10 volume reagent, Invitrogen) and incubated at 37° C. for 4 hours, followed by measurement of fluorescence with excitation wavelength at 530 nm and emission wavelength at 590 nm.
For the 3D Matrigel™ culture, monolayer grown cells were harvested by trypsinization, taken up in the complete medium, and separated into single-cell suspension by several passages through a Pasteur pipette. After this, 50 μl complete medium containing 5,000 cells was added to 150 μl of growth factor reduced Matrigel™ (Becton Dickinson, Bedford, Mass.) diluted 1:1 with complete media with 20% FBS. […] Organoid formation was counted in randomly chosen fields with light microscopy. […]
Cell viability, soft agar colony formation assay and 3D matrigel growth assays were performed as described above in Example 1. For the cell viability assay, 3000 cells were seeded into 100 ul media(2% FBS) and every 24 h viability was determined.

[1] = test system: TAMR cells (tamoxifen resistant MCF-7); experiment: Cell number growth assay in estrogen free medium, TAMR cells; type: cell-based, human; details: 1 μM tamoxifen, 7 days
Description: (§2) For estrogen-free cell culture, MCF-7 cells were cultured in phenol red free RPMI-1640 supplemented with 10% dextran coated charcoal stripped fetal bovine serum (CS-FBS) for 3 days before estrogen or antiestrogen treatment. The tamoxifen resistant (TAMR) cell line was established as described by Shaw et al. (2006). Briefly, the parental MCF-7 cells were continuously exposed for 6 months to 1 μM tamoxifen in phenol red free RPMI 1640 medium containing 10% CS-FBS until the cells developed resistance to the growth inhibitory effect of tamoxifen. MCF-7 cells sensitive to tamoxifen, cultured in the same medium without tamoxifen, were designated as tamoxifen sensitive (TAMS) cells. Cells were seeded onto 6-well plates at a density of 5×10^4 cells per well, in triplicate, in 3 ml of complete medium containing 10% or 0.2% FBS. Cells were cultured under these conditions for up to 10 days with medium changed every other day until harvesting. To compare the cell proliferation rate, the total cell number in each well was quantified with a haemocytometer every 2 days. Cell viability was assessed by using trypan blue.

[2] = test system: TAMR cells (tamoxifen resistant MCF-7); experiment: Soft agar colony formation (anchorage independent growth), TAMR cells; type: cell-based, human; details: 1 μM tamoxifen alone, 10 days
Description: as §1
To perform soft agar colony formation assays, 50 μl of 0.5% agarose in serum containing medium was plated onto each well of 96-well flat-bottom microplates, as a base agar layer. Next, 5×10^3 cells in a […] mixture of 0.35% agarose in serum containing medium were plated onto the base layer. Subsequently, 100 μl of the medium was added to prevent drying of the agarose gels. For antibody treatment, the antibodies at the indicated concentrations were added into the top agar layer and the culture medium to ensure the complete exposure of cells to antibodies. […] The plate was shaken briefly and then read at 595 nm (test wavelength) and 690 nm (reference wavelength) using the Synergy™ 2 Multi-Mode Microplate Reader (BioTek instruments, Inc., Vermont, USA).

artemin = experiment: Artemin expression by semi-quantitative RT-PCR and Western blot in TAMS/TAMR cells; type: cell-based, human; details: 1 μM tamoxifen, 72 hours
Description: Total RNA was isolated from cultured cells with Trizol reagent (Invitrogen) at 1 ml/10 cm2 according to the manufacturer's instructions. RNA was resuspended in diethyl pyrocarbonate (DEPC)-treated nuclease-free water. RNA samples were further treated with DNase I for 30 min at 37° C. The reaction was stopped by addition of 25 mM EDTA and incubation at 65° C. for 15 min. RNA samples were then purified by extraction in phenol/chloroform (pH 5.2, phenol:chloroform:isoamyl alcohol at 25:24:1) followed by an additional chloroform extraction and ethanol precipitation. Quantification and purity of the RNA was assessed by A260/A280 absorption, and RNA quality was assessed by agarose gel electrophoresis. RNA samples with ratios of A260/A280 greater than 1.6 were stored at −80° C. for further analysis.
One-step reverse transcription (RT)-PCR kit (Qiagen) was used to determine the presence of artemin transcript using a pair of primers: 5′-[…]-3 (forward; SEQ ID NO: 41) and 5′-[…]-3′ (reverse; SEQ ID NO: 42). For RT-PCR, the following procedure was employed. To start, 1 μg of total RNA was diluted to 0.1 μg/μl to minimize the variation of sample handling. This dilution was treated by DNase I for 15 min, followed by inactivation of DNase by adding EDTA to 5 mM and heating to 70° C. for 15 min. […]

[3] = test system: TAMS cells (tamoxifen sensitive MCF-7); experiment: Cell number growth assay in estrogen free medium, TAMS cells; type: cell-based, human; details: 1 μM tamoxifen, 7 days
Description: as §2

| SMILES | ARTN expression (ARTN) | difference in sensitivity to paclitaxel, resistant subline vs parental line (BT549 PTX Res cells; BT549-PTX Res vs parental BT549) [fold] | sensitivity to paclitaxel in monolayer proliferation, colony formation in soft agar and 3D matrigel growth (BT549 PTX Res cells; paclitaxel resistant cells compared to paclitaxel sensitive cells) | growth of TAMR cells [1] | colony formation in soft agar [2] | artemin expression (mRNA and protein) (artemin; TAMR cells) | artemin expression (mRNA and protein) (artemin; TAMS cells) | growth of TAMS cells [3] |
| --- | --- | --- | --- | --- | --- | --- | --- | --- |
| CC(=O)O[C@H]1C(=O)[C@@]2(C)[C@H]([C@H](OC(=O)c3ccccc3)[C@]3(O)C[C@H](OC(=O)[C@H](O)[C@@H](NC(=O)c4ccccc4)c4ccccc4)C(C)=C1C3(C)C)[C@]1(OC(C)=O)CO[C@@H]1C[C@@H]2O [paclitaxel] | increased ARTN expression | ~2 | less sensitivity to paclitaxel |  |  |  |  |  |
| CC/C(=C(\c1ccccc1)c1ccc(OCCN(C)C)cc1)c1ccccc1 [tamoxifen] |  |  |  | loss of response to E2 and of tamoxifen sensitivity | did not affect colony formation | retained elevated artemin expression | markedly abrogated artemin expression | retained the response to E2 and tamoxifen sensitivity |
